Molecular target: T1, ligand binding domain of human ROR gamma (Homo sapiens, UniProt P51449)
T1 construct: NM_001001523; expressed in transfected cells; host or cells: HEK293T
T1 sequence (P51449 247-497 isoform P51449-2): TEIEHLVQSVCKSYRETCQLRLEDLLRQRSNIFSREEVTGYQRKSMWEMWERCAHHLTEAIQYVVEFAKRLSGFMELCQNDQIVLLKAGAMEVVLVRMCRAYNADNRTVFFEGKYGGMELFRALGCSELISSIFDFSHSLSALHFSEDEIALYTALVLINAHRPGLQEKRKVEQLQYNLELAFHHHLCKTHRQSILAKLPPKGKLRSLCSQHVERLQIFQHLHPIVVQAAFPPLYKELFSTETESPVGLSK
Assay: ROR gamma reporter gene assay (GAL4-RORγ LBD luciferase, Dual-Glo)
Assay type: cell-based
Details: HEK293T cells transfected with pM-ROR gamma, 8 concentrations 3.5 nM to 10.5 μM, 24 h incubation; read-out: result (pIC50, inhibition of RORγ transcriptional activity) (converted)
Outline: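 First, HEK293T cells are transfected with the GAL4–RORγ LBD construct, a 5×UAS luciferase reporter and a constitutive renilla control. Next, test compounds are added over eight concentrations (3.5 nM to 10.5 μM). After 24 h at 37 °C, Dual-Glo luminescence is measured and pIC50 fitted.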

Row | Structure (SMILES) | IC50 [pM]
1 | CC(C)(C)CN(CC(=O)c1c(Cl)cccc1OC(F)F)C(=O)c1cnn([C@H]2CC[C@](C)(C(=O)O)CC2)c1C(F)(F)F [Example 406, trans-4-(4-((2-(2-chloro-6-(difluoromethoxy)phenyl)-2-oxoethyl)-(2,2-dimethylpropyl)carbamoyl)-5-(trifluoromethyl)pyrazol-1-yl)-1-methylcyclohexane-1-carboxylic acid] | 50100
2 | O=C(CN(Cc1cc(F)cc(F)c1)C(=O)c1cnn([C@H]2CC[C@H](C(=O)O)CC2)c1C(F)(F)F)c1c(F)cc(F)cc1Cl [Example 179, trans-4-(4-((2-(2-chloro-4,6-difluorophenyl)-2-oxoethyl)-((3,5-difluorophenyl)methyl)carbamoyl)-5-(trifluoromethyl)pyrazol-1-yl)cyclohexane-1-carboxylic acid] | 52500
3 | CC(F)(F)c1c(C(=O)N(CC(=O)c2c(Cl)cncc2Cl)Cc2ccc(F)cc2)cnn1[C@H]1CC[C@H](C(=O)O)CC1 [Example 84, trans-4-(4-((2-(3,5-dichloropyridin-4-yl)-2-oxoethyl)(4-fluorobenzyl)carbamoyl)-5-(1,1-difluoroethyl)-1H-pyrazol-1-yl)cyclohexanecarboxylic acid] | 107000
4 | Cc1cc(C)c(C(=O)CN(C(=O)c2cnn([C@H]3CC[C@](C)(C(=O)O)CC3)c2C(F)(F)F)C2CCC(C)(C)CC2)c(Cl)c1 [Example 279, trans-4-(4-((2-(2-chloro-4,6-dimethylphenyl)-2-oxoethyl)-(4,4-dimethylcyclohexyl)carbamoyl)-5-(trifluoromethyl)pyrazol-1-yl)-1-methylcyclohexane-1-carboxylic acid] | 38000
5 | NCc1c(C(=O)N(CC(=O)c2c(Cl)cncc2Cl)Cc2cc(F)cc(F)c2)cnn1[C@H]1CC[C@H](C(=O)O)CC1 [Example 163, trans-4-(5-(aminomethyl)-4-((2-(3,5-dichloropyridin-4-yl)-2-oxoethyl)-((3,5-difluorophenyl)methyl)carbamoyl)pyrazol-1-yl)cyclohexane-1-carboxylic acid] | > 1e+07
6 | Cc1noc(C)c1C(=O)CN(Cc1cc(F)cc(F)c1)C(=O)c1cnn([C@H]2CC[C@H](C(=O)O)CC2)c1C(F)(F)F [Example 64, trans-4-(4-((3,5-difluorobenzyl)(2-(3,5-dimethylisoxazol-4-yl)-2-oxoethyl)carbamoyl)-5-(trifluoromethyl)-1H-pyrazol-1-yl)cyclohexanecarboxylic acid] | > 1e+07
7 | C[C@]1(C(=O)O)CC[C@H](n2ncc(C(=O)N(CCN3CCCC(F)C3)CC(=O)c3c(Cl)cc(F)cc3Cl)c2C(F)(F)F)CC1 (stereo partly drawn) [Example 353, trans-4-(4-((2-(2,6-dichloro-4-fluorophenyl)-2-oxoethyl)-(2-(3-fluoropiperidin-1-yl)ethyl)carbamoyl)-5-(trifluoromethyl)pyrazol-1-yl)-1-methylcyclohexane-1-carboxylic acid] | 178000
8 | NC(=O)[C@H]1CC[C@H](n2ncc(C(=O)N(CC(=O)c3c(Cl)cncc3Cl)Cc3ccc(F)cc3)c2C(F)(F)F)CC1 [Example 88, l-(trans-4-carbamoylcyclohexyl)-N-(2-(3,5-dichloropyridin-4-yl)-2-oxoethyl)-N-(4-fluorobenzyl)-5-(trifluoromethyl)-1H-pyrazole-4-carboxamide] | 87100
9 | CC1(C)CCC(N(CC(=O)c2c(Cl)cncc2Cl)C(=O)c2cnn([C@H]3CC[C@](C)(C(=O)O)CC3)c2C(F)(F)F)CO1 (stereo partly drawn) [Example 323, trans-4-(4-((2(3,5-dichloropyridin-4-yl)-2-oxoethyl)-(6,6-dimethyloxan-3-yl)carbamoyl)-5-(trifluorornethyl)pyrazol-1-yl)-1-methylcyclohexane-1-carboxylic acid] | 380000
10 | CC(C)(C)C#CCN(CC(=O)c1c(Cl)cncc1Cl)C(=O)c1cnn([C@H]2CC[C@H](C(=O)O)CC2)c1C(F)(F)F [Example 110, trans-4-(4-((2-(3,5-dichloropyridin-4-yl)-2-oxoethyl)-(4,4-dimethylpent-2-ynyl)carbamoyl)-5-(trifluoromethyl)pyrazol-1-yl)cyclohexane-1-carboxylic acid] | 162000
11 | COCC(C)N(CC(=O)c1c(Cl)cncc1Cl)C(=O)c1cnn([C@H]2CC[C@](C)(C(=O)O)CC2)c1C(F)(F)F (stereo partly drawn) [Example 313, trans-4-(4-((2-(3,5-dichloropyridin-4-yl)-2-oxoethyl)-(1-methoxypropan-2-yl)carbamoyl)-5-(trifluoromethyl)pyrazol-1-yl)-1-methylcyclohexane-1-carboxylic acid] | 1.55e+06
12 | COC(C)(C)CN(CC(=O)c1c(Cl)cncc1Cl)C(=O)c1cnn([C@H]2CC[C@H](C(=O)O)CC2)c1C(F)(F)F [Example 74, trans-4-(4-((2-(3,5-dichloropyridin-4-yl)-2-oxoethyl)(2-methoxy-2-methylpropyl)carbamoyl)-5-(trifluoromethyl)-1H-pyrazol-1-yl)cyclohexanecarboxylic acid] | 263000
13 | CC1(CN(CC(=O)c2c(Cl)cncc2Cl)C(=O)c2cnn(C34CCC(C(=O)O)(CC3)CC4)c2C(F)(F)F)CC1 [Example 316, 4-(4-((2-(3,5-dichioropyridin-4-yl)-2-oxoethyl)-((1-methylcyclopropyl)methyl)carbamoyl)-5-(trifluoromethyl)pyrazol-1-yl)bicyclo[2.2.2]octane-1-carboxylic acid] | 9120
14 | COc1cccc(Cl)c1C(=O)CN(C(=O)c1cnn(C23CCC(C(=O)O)(CC2)CC3)c1C(F)(F)F)C1CCC(C)(C)CC1 [Example 243, 4-(4-((2-(2-chloro-6-methoxyphenyl)-2-oxoethyl)-(4,4-dimethylcyclohexyl)carbamoyl)-5-(trifluoromethyl)pyrazol-1-yl)bicyclo[2.2.2]octane-1-carboxylic acid] | 55000
15 | CC12CCC(CN(CC(=O)c3c(Cl)cc(Cl)cc3Cl)C(=O)c3cnn([C@H]4CC[C@](C)(C(=O)O)CC4)c3C(F)(F)F)(CC1)O2 [Example 260, trans-4-(4-((1-methyl-7-oxabicyclo[2.2.1]heptan-4-yl)methyl-(2-oxo-2-(2,4,6-trichlorophenyl)ethyl)carbamoyl)-5-(trifluoromethyl)pyrazol-1-yl)-1-methylcyclohexane-1-carboxylic acid] | 6030
16 | O=C(c1c(C(F)(F)F)nn([C@H]2CC[C@H](C(=O)O)CC2)c1C(F)(F)F)N(CCc1c(Cl)cncc1Cl)Cc1ccc(F)cc1 [Example 412, trans-4-(4-(2-(3,5-dichloropyridin-4-yl)ethyl-((4-fluorophenyl)methyl)carbamoyl)-3,5-bis(trifluoromethyl)pyrazol-1-yl)cyclohexane-1-carboxylic acid] | 1.12e+06
17 | O=C(CN(Cc1cc(F)cc(F)c1)C(=O)c1cnn([C@H]2CC[C@H](C(=O)O)CC2)c1C(F)(F)F)c1c(Cl)cc(F)cc1Cl [Example 55, trans-4-(4-((2-(2,6-dichloro-4-fluorophenyl)-2-oxoethyl)(3,5-difluorobenzyl)carbamoyl)-5-(trifluoromethyl)-1H-pyrazol-1-yl)cyclohexanecarboxylic acid] | 8910
18 | CC(C)(C)[C@H]1C[C@@H](CN(CC(=O)c2c(Cl)cncc2Cl)C(=O)c2cnn([C@H]3CC[C@H](C(=O)O)CC3)c2C(F)(F)F)C1 [Example 126, trans-4-(4-((3-tert-butylcyclobutyl)methyl-(2-(3,5-dichloropyridin-4-yl)-2-oxoethyl)carbamoyl)-5-(trifluoromethyl)pyrazol-1-yl)cyclohexane-1-carboxylic acid] | 912000
19 | Cc1cncc(Cl)c1C(=O)CN(Cc1cc(F)cc(F)c1)C(=O)c1cnn([C@H]2CC[C@H](C(=O)O)CC2)c1C(F)(F)F [Example 49, trans-4-(4-((2-(3-chloro-5-methylpyridin-4-yl)-2-oxoethyl)(3,5-difluorobenzyl)carbamoyl)-5-(trifluoromethyl)-1H-pyrazol-1-yl)cyclohexanecarboxylic acid] | 40700
20 | Cc1cc(Cl)c(C(=O)CN(Cc2cc(F)cc(F)c2)C(=O)c2cnn([C@H]3CC[C@H](C(=O)O)CC3)c2C(F)(F)F)c(Cl)c1 [Example 137, trans-4-(4-((2-(2,6-dichloro-4-methylphenyl)-2-oxoethyl)-((3,5-difluorophenyl)methyl)carbamoyl)-5-(trifluoromethyl)pyrazol-1-yl)cyclohexane-1-carboxylic acid] | 4790
21 | O=C(CN(Cc1ccnnc1)C(=O)c1cnn([C@H]2CC[C@H](C(=O)O)CC2)c1C(F)(F)F)c1c(Cl)cccc1Cl [Example 151, trans-4-(4-((2-(2,6-dichlorophenyl)-2-oxoethyl)-(pyridazin-4-ylmethyl)carbamoyl)-5-(trifluoromethyl)pyrazol-1-yl)cyclohexane-1-carboxylic acid] | 8.13e+06
22 | COc1ccccc1[C@H](O)CN(C(=O)c1cnn([C@H]2CC[C@](C)(C(=O)O)CC2)c1C(F)(F)F)[C@H]1C[C@@H]2[C@H](C1)C2(C)C [Example 371, trans-4-(4-(((1R,3r,5S)-6,6-dimethylbicyclo[3.1.0]hexan-3-yl)(2-hydroxy-2-(2-methoxyphenyl)ethyl)carbamoyl)-5-(trifluoromethyl)-1H-pyrazol-1-yl)-1-methylcyclohexanecarboxylic acid] | 5.37e+06

Reference: patent publication US9365522B2, “Pyrazole amide derivative” (AMGEN INC., priority 2015, dated 2016)
